By IC50 is commonly meant the midpoint of a concentration-inhibition curve.

Data on two molecules can be found in ChEMBL document CHEMBL2311317, “Organosilicon molecules with medicinal applications” (J Med Chem, 2013).

The target in this experiment is Matrix protein 2 (Influenza A virus (A/Udorn/307/1972(H3N2)), UniProt P0DOF8, V27A).

Take `NC1CC[Si]2(CCCC2)CC1`: it took 96.3 µM to reach half-maximal inhibition (IC50). This lies in the double-digit micromolar range.

`NC1CCC2(CCCC2)CC1` yielded an IC50 of 319 µM.
